This is an account of results in patent US20210170033A1, “NOVEL CONJUGATES OF A PHARMACEUTICAL AGENT AND A MOIETY CAPABLE OF BINDING TO A GLUCOSE SENSING PROTEIN” (SANOFI, priority 2017, published 2021).

Like-named read-outs stand apart in the source and are kept apart here. A value given as a limit tells only on which side of the number the result lay.

For assay [1], the target named is T1, hGLUT1 protein (Homo sapiens, UniProt P11166).
T1 construct: fused on or other part: 11-amino-acid HiBiT peptide tag (small part of nanoluciferase) inserted into the first extracellular loop of GLUT1
T1 sequence (P11166 1-492): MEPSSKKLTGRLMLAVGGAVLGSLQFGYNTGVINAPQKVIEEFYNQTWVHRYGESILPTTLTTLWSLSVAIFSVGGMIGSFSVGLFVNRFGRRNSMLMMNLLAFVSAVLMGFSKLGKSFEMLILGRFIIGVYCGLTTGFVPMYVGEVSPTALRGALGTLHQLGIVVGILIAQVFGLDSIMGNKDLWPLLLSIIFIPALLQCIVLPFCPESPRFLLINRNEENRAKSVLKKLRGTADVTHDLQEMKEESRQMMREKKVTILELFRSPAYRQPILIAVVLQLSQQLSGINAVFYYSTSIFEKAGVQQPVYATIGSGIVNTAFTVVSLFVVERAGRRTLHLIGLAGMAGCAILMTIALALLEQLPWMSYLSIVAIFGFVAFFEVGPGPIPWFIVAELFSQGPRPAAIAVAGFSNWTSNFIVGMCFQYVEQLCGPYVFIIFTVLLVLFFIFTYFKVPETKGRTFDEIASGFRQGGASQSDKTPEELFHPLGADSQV
The assay can be described thus: NanoBRET-based GLUT1-binding assay in HEK cells. The settings on record: for BRET interference signal using Glucose: check of HiBit-tagged GLUT1 HEK cell line, stereoselective signal. As to the method:
3. NanoBRET-Based GLUT1-Binding Assays in HEK Cells
To measure binding of compounds to the hGLUT1 protein, the newly-developed NanoBRET platform from Promega is used. In this technology binding is measured via Foerster Resonance Energy Transfer. Foerster Resonance Energy Transfer is based on a direct, radiation-free energy transfer from donor to acceptor and can only take place when donor and acceptor are within nm distance. As donor energy the bioluminescence light of nanoluciferase is used, therefore this application is referred to as BRET (Bioluminescence Resonance Energy Transfer). Nanoluciferase is a protein that emits light when the appropriate substrate is available.
Nanoluciferase is attached to GLUT1 via protein complementation using the HiBit protein tagging system (Promega). […] The HiBit peptide tag is used as a landing pad for the so called Large Bit protein that is commercially available from Promega and added to the medium. Large Bit has a high affinity for HiBit tag resulting in protein complementation to a fully-functional nanoluciferase, which is used as energy donor in the NanoBRET assay system.
To obtain a HEK cell line expressing HiBit-tagged GLUT1, cells were transfected with the appropriate construct placed behind the tetracycline-inducible promoter (Flipin T-Rex system from Thermo Fisher, K650001) and a cell line was generated.
As NanoBRET acceptor a GLUT1 inhibitor described by Siebeneicher et al. (Siebeneicher H., Bauser M., Buchmann B., et al. Identification of novel GLUT inhibitors. Bioorganic & Medicinal Chemistry Letters 2016; 26(7):1732-7; compound 53) was reduced to the aminobenzyl derivative and coupled to the fluorophore NanoBRET618 (Promega) and is referred to as “Bayer+NB618”.
For the assay 50 μl with 7500 cells (HiBit-tagged GLUT1 HEK cells) are plated into 384 poly-D-lysine-coated black μClear plates (Greiner) in DMEM (Gibco 61966) medium supplemented with 10% tetracycline-free FCS (PAN P30-3602) and 300 ng/ml doxycycline (Sigma 9891) to induce the induction of the HiBit-tagged GLUT1 protein.
Incubation of Compound and Acceptor Molecule
After getting adherent by overnight incubation at 37° C. and 10% CO2, the medium is replaced by 10 μl imaging medium (1% BSA (Sigma A9576), 5 mM Hepes (Gibco 15630), 0.35 mM Na-bicarbonate (Gibco 11360-039), 1 mM Na-Pyruvate (Gibco 11360) in PBS buffer (Gibco14040)). 5 μl Bayer+NB618 (in imaging medium, final concentration 75 nM) is added and the plates are incubated for 15 minutes statically at room temperature.
A serial dilution of the test compounds is prepared in imaging medium and added in 10 μl to the respective wells. As a positive control for displacement values from wells incubated with 200 mM D-Glucose (Sigma G8769) are used. Plates are incubated for 30 minutes at room temperature without shaking.
Generating Luminescence and Measuring Fluorescence
This detection solution is made in the buffer provided. After addition of the detection reagent, the samples are incubated for 30 minutes without shaking and subsequently the luminescence and fluorescence emissions are measured simultaneously on the PHERAstar FSX (BMG Labtech) using the appropriate dual filter setup. This filter setup is made up of a 450-80 nm band pass filter to measure the donor signal peaking at 460 nm and a long pass filter starting at 610 nm to measure the fluorescence emission of NanoBRET 618, which peaks at 621 nm and continues beyond 700 nm.
From the raw luminescence and fluorescence values, the NanoBRET ratios are calculated, being the ratio of the fluorescence signal divided by the luminescence signal. Mean values are obtained from at least duplicates.
For percentage inhibition results, the mean value of the not-compound-treated cells is set as 0%. The mean BRET value of the cells treated with 200 mM glucose is used for maximal inhibition. All other mean values were calculated to this relation. […]
(In general: In BRET a luciferase serves as donor, and the signal depends on an acceptor being close.)

The test system of assay [2] is A2780 cells. The assay can be described thus: Deoxy-glucose uptake assay in A2780 cells (14C 2-deoxy-D-glucose transport). The format is cell-based. The settings on record: Homo sapiens, 20 min; inhibition of 14C 2-deoxy-D-glucose transport into A2780 cells; 20 min compound incubation; read-out: IC50. A digest of the protocol:
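Radiolabelled 2-deoxy-D-glucose transport over 20 min was scintillation-counted in A2780 cells, grown 48 h, after 20 min compound exposure in KRB. Untreated cells gave the 100% reference, with Cytochalasin B defining background. IC50 values were regressed from triplicate means across 7 or 14 concentrations.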

In assay [3] the test system is A2780 Human Carcinoma Cells. The assay can be described thus: Glucose displacement assay (ATP measurement, CellTiter-Glo). It is filed as cell-based. Particulars: ATP measurement in A2780 cells, 0.5 μM rotenone. As to the method: 2. Glucose Displacement Assay (ATP Measurement)
30,000 A2780 Human Carcinoma Cells are seeded per well in a Greiner 96-well plate. Cells are expanded and cultured in RPMI 1640 medium+GlutaMAX® with 10% FCS and 11 mM glucose, at 37° C. with 5% CO2. After 44 h, culture media is changed and washed once with PBS to starvation media consisting of RPMI 1640 medium with 1% FCS without glucose for 2 hours. Cells are then washed with KRB buffer, followed by incubation for 20 min at 37° C. of the treatment mix consisting of 60 μL KRB buffer/well and 10 μL of compound or DMSO 10×. 10 μl of rotenone is added to the mix to a final concentration of 0.5 μM. Cell plates are left for 2 min at room temperature. 20 μL of different glucose concentrations are added to the mix—typically 0.1 to 10 mM range—.
Cells are incubated for another 15 min at 37° C., before measuring ATP with the CellTiter-Glo® Assay, under manufacturer's guidance, but without the equilibration step at room temperature for 30 min. In brief, 100 μl of Cell-Titer-Glo® Reagent is added to the wells containing already 100 μl of the previous reaction mix. Plates are mixed for 2 min at 800 rpm, followed by incubation at room temperature for 10 min to stabilize the luminescent signal. Luminescence is then recorded with the Tekan Ultra Evolution reader.
Background: Cellular ATP, detected with luciferase, serves as a proxy for viable cell number.

The mark [4] stands for this setting: displacement of Bayer+NB618 (75 nM) from HiBit-tagged GLUT1 HEK cells, mean of measurements done twice in duplo, read-out: IC50.
[5] abbreviates: 1 mM glucose, read-out: IC50 [μM] at 1 mM glucose.
Where [6] appears, read: 10 mM glucose, read-out: IC50 [μM] at 10 mM glucose.

As usually defined, the IC50 is the concentration that inhibits the measured activity by half. Turning to `O=C[C@H](O)[C@@H](O)[C@H](O)[C@H](O)CO` [D-Glucose, reference compound], in assay [1], the IC50 was 5330 ± 560 µM and the “BRET interference signal using Glucose” value is “decreases BRET”.
For the compound `CO[C@H]1O[C@H](CO)[C@@H](O)[C@H](O)[C@H]1OC(=O)c1cc(Cl)c(OCc2cccc(CNC(=O)OC(C)(C)C)c2)c(Cl)c1C` [Example 202a], the values for the IC50 in assay [2] and in assay [1] (setting [4]) were 1.8 µM and 4.41 µM, respectively.
In the case of `CO[C@H]1O[C@H](CO)[C@@H](O)[C@H](O)[C@H]1NC(=O)c1cc(Cl)c(OCc2nc3ccccc3n2CCCCCCNC(=O)OC(C)(C)C)c(Cl)c1C` [Example 305], the IC50 in assay [2] worked out at 0.1 µM; in assay [1] (setting [4]), 2.83 µM.
Regarding `COc1cc(OCc2cccc(CNC(=O)CCCC(=O)OC(C)(C)C)c2)c(Cl)cc1C(=O)N[C@H]1[C@@H](OC)O[C@H](CO)[C@@H](O)[C@@H]1O` [Example 425], the half-inhibitory concentration (IC50) in assay [3] (setting [5]) worked out at 7.97 µM; in assay [3] (setting [6]), 14.5 µM; in assay [2] it was 2.5 µM.
The like results for `COc1cc(OCc2cccc(CNC(=O)CCCCCCC(=O)OC(C)(C)C)c2)c(Cl)cc1C(=O)N[C@H]1[C@@H](OC)O[C@H](CO)[C@@H](O)[C@@H]1O` [Example 426] were, in that order, 5.56 µM, 19.5 µM and 2.8 µM.
As for `COc1cc(OCc2cccc(NC(=O)CCCCCCC(=O)OC(C)(C)C)c2)c(Cl)cc1C(=O)N[C@H]1[C@@H](OC)O[C@H](CO)[C@@H](O)[C@@H]1O` [Example 430], the IC50 is 3.9 µM in assay [3] (setting [5]), 7.8 µM in assay [3] (setting [6]) and 1.7 µM in assay [2].
In the case of `COC(=O)[C@H](CCCCNC(=O)CCCCCCC(=O)NCc1cccc(COc2cc(OC)c(C(=O)N[C@H]3[C@@H](OC)O[C@H](CO)[C@@H](O)[C@@H]3O)cc2Cl)c1)NC(=O)OC(C)(C)C` [Example 437], the 50% inhibitory concentration (IC50) was 19.5 µM in assay [3] (setting [5]), above 33 µM in assay [3] (setting [6]) and 17.6 µM in assay [2].
For the compound `COC(=O)[C@H](CCCCNC(=O)CCCCCCCCC(=O)NCc1cccc(COc2cc(OC)c(C(=O)N[C@H]3[C@@H](OC)O[C@H](CO)[C@@H](O)[C@@H]3O)cc2Cl)c1)NC(=O)OC(C)(C)C` [Example 438], the 50% inhibitory concentration (IC50) in assay [3] (setting [5]) was 13 µM; in assay [3] (setting [6]), above 33 µM; in assay [2], 13.8 µM.
Taken in the same sequence, the figures for `CO[C@H]1O[C@H](CO)[C@@H](O)[C@H](O)[C@H]1NC(=O)c1cc(Cl)c(OCc2cccc(CNC(=O)OC(C)(C)C)c2)c(Cl)c1C` [Example 439] were 2.5 µM, 11.5 µM and 3.3 µM.
`COC(=O)[C@H](CCCCNC(=O)CCCC(=O)Nc1cccc(COc2cc(OC)c(C(=O)N[C@H]3[C@@H](OC)O[C@H](CO)[C@@H](O)[C@@H]3O)cc2Cl)c1)NC(=O)OC(C)(C)C` [Example 440]: the values for the IC50 in assay [3] (setting [5]), in assay [3] (setting [6]) and in assay [2] were 18 µM, above 33 µM and 7 µM, respectively.
Taken in the same sequence, the figures for `COC(=O)[C@H](CCCCNC(=O)CCCCCCC(=O)Nc1cccc(COc2cc(OC)c(C(=O)N[C@H]3[C@@H](OC)O[C@H](CO)[C@@H](O)[C@@H]3O)cc2Cl)c1)NC(=O)OC(C)(C)C` [Example 441] were 3 µM, 11.4 µM and 2.7 µM.
Taken in the same sequence, the figures for `COC(=O)[C@H](CCCCNC(=O)CCCCCCCCC(=O)Nc1cccc(COc2cc(OC)c(C(=O)N[C@H]3[C@@H](OC)O[C@H](CO)[C@@H](O)[C@@H]3O)cc2Cl)c1)NC(=O)OC(C)(C)C` [Example 442] were 1.6 µM, 5.2 µM and 1 µM.
With `CO[C@H]1O[C@H](CO)[C@@H](O)[C@H](O)[C@H]1NC(=O)c1cc(Cl)c(OCc2cccc(NC(=O)OC(C)(C)C)c2)c(Cl)c1C` [Example 443], the IC50 in assay [3] (setting [5]) came to 2 µM; in assay [3] (setting [6]), 8.9 µM; in assay [2] it was 6 µM.
As to `COc1c(C(=O)N[C@H]2[C@@H](OC)O[C@H](CO)[C@@H](O)[C@@H]2O)cc(Cl)c(OCc2cccc(CNC(=O)OC(C)(C)C)c2)c1Cl` [Example 444], the 50% inhibitory concentration (IC50) in assay [3] (setting [5]) came to 4 µM; in assay [3] (setting [6]), 8.4 µM; in assay [2], 1.6 µM.
For `COc1cc(OCc2nc3ccccc3n2CCCCCCCCCCCC(=O)O)c(Cl)cc1C(=O)N[C@H]1[C@@H](OC)O[C@H](CO)[C@@H](O)[C@@H]1O` [Example 469], the results for the concentration for half-maximal inhibition (IC50) in assay [3] (setting [5]), in assay [3] (setting [6]) and in assay [2] were 2.4 µM, 3.3 µM and 1.7 µM, respectively.
The like results for `COC(=O)[C@H](CCCCNC(=O)CCCCCNC(=O)CCCCCCC(=O)Nc1cccc(COc2cc(OC)c(C(=O)N[C@H]3[C@@H](OC)O[C@H](CO)[C@@H](O)[C@@H]3O)cc2Cl)c1)NC(=O)OC(C)(C)C` [Example 471] were, in that order, 3.4 µM, 8.6 µM and 0.8 µM.
Taken in the same sequence, the figures for `COC(=O)[C@@H](CCCCNC(=O)CCCCCNC(=O)CCCCCCCCC(=O)Nc1cccc(COc2cc(OC)c(C(=O)N[C@H]3[C@@H](OC)O[C@H](CO)[C@@H](O)[C@@H]3O)cc2Cl)c1)NC(=O)OC(C)(C)C` [Example 472] were 5.9 µM, 15.6 µM and 1.6 µM.
Turning to `O=C[C@@H](O)[C@H](O)[C@@H](O)[C@@H](O)CO` [L-Glucose, reference compound], the “BRET interference signal using Glucose” value in assay [1] is “no effect on BRET”.
